Here are results for 2 compounds from patent publication US20050176778A1, “Isoprenyl derivatives and their use in the title treatment and prevention of osteoporosis and cardiovascular calcification” (Vitak BV, priority 2001, published 2005).

Molecules are shown by their SMILES. “Also recorded” adds a separate entry of the source.

Test [1] deals with prothrombin. The test is described as follows: Experiment 2: dietary requirement of vitamin K-1 in warfarin-treated rats, plasma prothrombin level. It counts as in vivo, male Lewis rats. How it is done: In experiment 2 the dietary requirement of vitamin K-1 in warfarin-treated (300 mg Vitamin K-1 per kg body weight per day) male Lewis rats, 6 weeks of age, was measured on the basis of blood coagulation tests after a treatment period of 4 weeks. At a level of 40 mg vitamin K-1 per kg body weight per day a normal prothrombin synthesis was maintained.
Thirty six male Lewis rats (6 weeks of age) were treated with an excess of warfarin (300 mg vitamin K-1 per kg body weight per day) to block all dithiol reductase present in the tissues. They were subdivided into groups of 6 animals each and received vitamin K-1 in the following doses: 20, 40, 70, 100, 300, and 600 mg/kg body weight per day. […] It was concluded that […] of vitamin K-1 per kg body weight per day effectively protects the animals against warfarin-induced bleeding.

The test system of test [2] is prothrombin. The test is described as follows: Experiment 1: dietary requirement of vitamin K-1 in untreated rats, prothrombin concentration (one-stage coagulation assay). It counts as in vivo, male Lewis rats. As to conditions: for Mean prothrombin concentration: four weeks. How it is done:
In experiment 1 the dietary requirement of vitamin K-1 was measured in untreated male Lewis rats, 6 weeks of age, on the basis of blood coagulation tests after a treatment period of 4 weeks. At an intake of 40 microgram vitamin K-1 per kg body weight per day, the synthesis of coagulation factors had reached its (maximal) plateau level.
Male rats of the Lewis strain were used throughout our experiments, six animals per group. Thirty six animals entered the experiment at the age of 6 weeks and received a vitamin K deficient diet (Hope Farms, Woerden, The Netherlands) for one week to deplete them from endogenous vitamin K. During the experiment they were housed in coprophagy-preventing cages. After this period citrated blood was taken from the tail vein, and the prothrombin concentrations (one-stage coagulation assay) were checked to be below the normal reference value. At that time they received vitamin K-deficient food to which controlled amounts of vitamin K-1 were added in the following doses: 0.1, 0.2, 0.4, 0.6, 0.8, and 1.0 mg/kg of food. The daily food intake was recorded, and the body weight of the animals was measured regularly. After four weeks of treatment at the indicated doses again blood was taken and prothrombin concentrations were measured. Mean prothrombin concentrations in the groups were: 23%, 48%, 82%, 98%, 102%, and 99% of pooled normal rat reference plasma. […] This amount corresponds with an intake of 40 micrograms of vitamin K-1 per kg body weight per day.

For test [3], the system named is vascular calcification (aortic arch and carotid arteries). The test is described as follows: Experiment 3: vascular calcification (Von Kossa staining) in rats treated with warfarin and increasing doses of vitamin K-1. The format is in vivo, male Lewis rats. The text has this: In the present invention the “Vitamin K1 plus warfarin” model was used to test effects of isoprenyl derivatives on vascular calcification. This model is also referred to as the “KW model for calcification” or “KW model”. Because of the parallels between vascular calcification and calcium metabolism in bone, the model is regarded to be valid for describing potential effects on bone.
The same animals described in experiment 2 were killed, and the aortic arch and carotid arteries were removed and stained for calcium deposits using the Von Kossa staining and histochemical inspection.

Test [4] deals with vascular calcification (aortae and carotid arteries). The test is described as follows: Experiment 4: vascular calcification (Von Kossa staining) in rats treated with warfarin, vitamin K-1 and increasing doses of MK-4 (KW model). The format is in vivo, male Lewis rats. The text has this: In the present invention the “Vitamin K1 plus warfarin” model was used to test effects of isoprenyl derivatives on vascular calcification. This model is also referred to as the “KW model for calcification” or “KW model”. Because of the parallels between vascular calcification and calcium metabolism in bone, the model is regarded to be valid for describing potential effects on bone. Whereas in this model the bone deformations will not become visible before 9 months of treatment, calcification of the large arteries is usually apparent within 4 weeks of treatment. This model therefore provides an excellent in vivo model to test the compounds according to the invention for their tissue distribution, toxicity and effectivity. […] It was shown that calcification was not inhibited by vitamin K-1 in doses going up from 40 to 600 mg/kg of body weight per day. The highest dose was 15,000 times the amount required for normal blood coagulation in untreated animals, and 15 times the amount required for normal blood coagulation in warfarin-treated animals. At these high intakes all tissues contain excessive amounts of vitamin K-1, which apparently are incapable of supporting the synthesis of inhibitors of calcium precipitation such as the Gla-protein MGP. […]

Test [5] has as its system postmenopausal bone loss. As to conditions: cited from earlier work.

Turning to `CC1=C(C/C=C(\C)CCC[C@H](C)CCC[C@H](C)CCCC(C)C)C(=O)c2ccccc2C1=O` [vitamin K-1], in test [1], the “Dose that effectively protects the animals against warfarin-induced bleeding” value is 70 mg of vitamin K-1 per kg body weight per day. Further, the “Level at which a normal prothrombin synthesis was maintained” value in test [1] (4 weeks) is on record as 40 mg vitamin K-1 per kg body weight per day. Moreover, the Circulating prothrombin concentration in test [1] (20 and 40 mg of vitamin K-1 per day) was 60 % of normal; in test [1] (all higher intakes (70, 100, 300, 600 mg/kg body weight per day)), “comparable to normal reference values”. In test [2] (untreated rats, content in food), the “Diet content sufficient to maintain normal prothrombin synthesis” value was 0.6 mg of vitamin K-1 per kg. In addition, the Mean prothrombin concentration in test [2] (vitamin K-1 0.1 mg/kg of food, after vitamin K deficient diet) was 23 % of pooled normal rat reference plasma; in test [2] (vitamin K-1 0.2 mg/kg of food) it was 48 % of pooled normal rat reference plasma; in test [2] (vitamin K-1 0.4 mg/kg of food) it was 82 % of pooled normal rat reference plasma; in test [2] (vitamin K-1 0.6 mg/kg of food), 98 % of pooled normal rat reference plasma; in test [2] (vitamin K-1 0.8 mg/kg of food), 102 % of pooled normal rat reference plasma; in test [2] (vitamin K-1 1.0 mg/kg of food), 99 % of pooled normal rat reference plasma. Also, the Inhibition of calcification entry in test [3] (KW model, vitamin K-1 doses going up from 40 to 600 mg/kg of body weight per day) is recorded as “not inhibited”. The “Vascular calcification (Von Kossa staining)” value in test [3] (warfarin 300 mg/kg/d plus vitamin K-1 20, 40, 70, 100, 300 and 600 mg/kg body weight per day, 4 weeks) is reported as “substantial calcification; also recorded: Calcification of the media (notably the elastic lamelae) was found in all animals”.
As for `CC(C)=CCC/C(C)=C/CC/C(C)=C/CC/C(C)=C/CC1=C(C)C(=O)c2ccccc2C1=O` [MK-4, 2-methyl 3-geranylgeranyl naphthoquinone], the “Inhibition of vascular calcification” value in test [4] (KW model, addition of 10 mg/kg body weight per day of MK-4) is “effectively inhibited all vascular calcification”. In test [4] (warfarin 300 mg/kg/d plus vitamin K-1 70 mg/kg/d plus MK-4 10, 20 and 50 mg per kg body weight per day, 6 weeks), the “Vascular calcification (Von Kossa staining)” value is “no calcification”. For the same compound, the Action on bone entry in test [5] (high doses of MK-4 (45 mg/day)) is “comparable with that of bisphosphonates”. In test [5] (high doses), the “Effect on postmenopausal bone loss” value was “almost completely inhibit postmenopausal bone loss”.
